In patent US9765056B2, “Indole and pyrrole compounds, a process for their preparation and pharmaceutical compositions containing them” (LES LABORATOIRES SERVIER, priority 2013, dated 2017):
Where a name gives a salt, the structure may show the parent alone.

Experiments:
[1] = molecular target: Bcl-2 protein (histag-Bcl-2, UniProtKB P10415) (Homo sapiens (Human), UniProt P10415); assay: Inhibition of Bcl-2 by the fluorescence polarisation technique; assay type: binding; details: fluorescence polarisation test; method A, or method B where underlined (underlining not visible); read-out: IC50 (nM) Bcl-2 FP
Chain of Bcl-2 protein (P10415 whole entry): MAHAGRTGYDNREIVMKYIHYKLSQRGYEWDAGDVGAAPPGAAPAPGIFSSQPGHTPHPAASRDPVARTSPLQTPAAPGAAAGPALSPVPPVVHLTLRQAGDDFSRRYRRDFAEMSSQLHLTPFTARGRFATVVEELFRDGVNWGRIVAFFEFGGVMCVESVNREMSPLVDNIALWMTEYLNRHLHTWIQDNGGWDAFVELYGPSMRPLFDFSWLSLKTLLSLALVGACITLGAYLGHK
Description: Inhibition of Bcl-2 by the fluorescence polarisation technique

[2] = test system: RS4;11 leukaemia tumour line; assay: In vitro cytotoxicity, Microculture Tetrazolium Assay (MTT); assay type: cell-based; details: Homo sapiens; RS4;11 cells, 48 hours exposure
Protocol: The cytotoxicity studies were carried out on the RS4;11 leukaemia tumour line.
The cells are distributed onto microplates and exposed to the test compounds for 48 hours. The cell viability is then quantified by a colorimetric assay, the Microculture Tetrazolium Assay (Cancer Res., 1987, 47, 939-942).

Compound | IC50 [1] [nM] | IC50 [2] [nM]
Cc1cc(C(=O)N(c2ccc(O)cc2)c2ccc3[nH]ccc3c2)cn1-c1ccccc1C(=O)N1Cc2ccccc2C[C@H]1CN(C)C [Example 23, 1-(2-{[(3S)-3-[(Dimethylamino)methyl]-3,4-dihydroisoquinolin-2(1H)-yl]carbonyl}phenyl)-N-(4-hydroxyphenyl)-N-(1H-indol-5-yl)-5-methyl-1H-pyrrole-3-carboxamide] | 26.1 | 445
CN1CCN(C[C@@H]2Cc3ccccc3CN2C(=O)c2cc3c(cc2-n2cc(C(=O)N(c4ccccc4)c4ccc(O)cc4)c4ccc(F)cc42)OCO3)CC1 [Example 197, 6-Fluoro-N-(4-hydroxyphenyl)-1-{6-[(3S)-3-[(4-methylpiperazin-1-yl)methyl]-1,2,3,4-tetrahydroisoquinoline-2-carbonyl]-2H-1,3-benzodioxol-5-yl}-N-phenyl-1H-indole-3-carboxamide] | 9.8 | 328
COc1cc(-n2cc(C(=O)N(c3ccccc3)c3ccccc3)c3ccccc32)c(C(=O)N2Cc3ccccc3C[C@H]2CN2CCN(C)CC2)cc1O [Example 181, 1-{4-Hydroxy-5-methoxy-2-[(3S)-3-[(4-methylpiperazin-1-yl)methyl]-1,2,3,4-tetrahydroisoquinoline-2-carbonyl]phenyl}-N,N-diphenyl-1H-indole-3-carboxamide dihydrochloride] | 6.9 | 205
CN1CCN(C[C@@H]2Cc3ccccc3CN2C(=O)c2ccc(Cl)cc2-n2cc(C(=O)N(c3ccc(O)cc3)c3ccc(Cl)cc3)c3ccccc32)CC1 [Example 76, 1-(5-Chloro-2-{[(3S)-3-[(4-methylpiperazin-1-yl)methyl]-3,4-dihydroisoquinolin-2(1H)-yl]carbonyl}phenyl)-N-(4-chlorophenyl)-N-(4-hydroxyphenyl)-1H-indole-3-carboxamide] | 8.7 | 151
CN1CCN(C[C@@H]2Cc3ccccc3CN2C(=O)c2cc3c(cc2-n2cc(C(=O)N(c4ccc(O)cc4)c4ccc5sccc5c4)c4ccccc42)OCO3)CC1 [Example 43, N-(1-Benzothiophen-5-yl)-N-(4-hydroxyphenyl)-1-(6-{[(3S)-3-[(4-methylpiperazin-1-yl)methyl]-3,4-dihydroisoquinolin-2(1H)-yl]carbonyl}-1,3-benzodioxol-5-yl)-1H-indole-3-carboxamide] | 7.2 | 101
Cc1ccc(N(C(=O)c2cn(-c3cc(Br)ccc3C(=O)N3Cc4ccccc4C[C@H]3CN3CCN(C)CC3)c3ccccc23)c2ccc(O)cc2)cc1 [Example 57, 1-(5-Bromo-2-{[(3S)-3-[(4-methylpiperazin-1-yl)methyl]-3,4-dihydroisoquinolin-2(1H)-yl]carbonyl}phenyl)-N-(4-hydroxyphenyl)-N-(4-methylphenyl)-1H-indole-3-carboxamide] | 13.4 | 267
Cc1cc(C(=O)N(c2ccc(O)cc2)c2ccc3c(ccn3C)c2)cn1-c1cc2c(cc1C(=O)N1Cc3ccccc3C[C@H]1CN1CCOCC1)CCC2 [Example 117, N-(4-Hydroxyphenyl)-5-methyl-N-(1-methyl-1H-indol-5-yl)-1-(6-{[(3S)-3-(morpholin-4-ylmethyl)-3,4-dihydroisoquinolin-2(1H)-yl]carbonyl}-2,3-dihydro-1H-inden-5-yl)-1H-pyrrole-3-carboxamide hydrochloride] | 7.6 | 193
CN1CCN(C[C@@H]2Cc3ccccc3CN2C(=O)c2cc3c(cc2-n2cc(C(=O)N(c4ccc(O)c(F)c4)c4ccc5c(ccn5C)c4)c4ccccc42)OCO3)CC1 [Example 97, N-(3-Fluoro-4-hydroxyphenyl)-N-(1-methyl-1H-indol-5-yl)-1-(6-{[(3S)-3-[(4-methylpiperazin-1-yl)methyl]-3,4-dihydroisoquinolin-2(1H)-yl]carbonyl}-1,3-benzodioxol-5-yl)-1H-indole-3-carboxamide hydrochloride] | 6.1 | 73.2
CN1CCN(C[C@@H]2Cc3ccccc3CN2C(=O)c2cc(NC(=O)CSc3ccccc3)ccc2-n2cc(C(=O)N(c3ccccc3)c3ccc(O)cc3)c3ccccc32)CC1 [Example 163, N-(4-Hydroxyphenyl)-1-{2-[(3S)-3-[(4-methylpiperazin-1-yl)methyl]-1,2,3,4-tetrahydroisoquinoline-2-carbonyl]-4-[2-(phenylsulphanyl)acetamido]phenyl}-N-phenyl-1H-indole-3-carboxamide] | 22.8 | 292
CN1CCN(C[C@@H]2Cc3ccccc3CN2C(=O)c2cc3c(cc2-n2cc(C(=O)N(CCc4ccccc4)c4ccc(O)cc4)c4ccccc42)OCO3)CC1 [Example 40, N-(4-Hydroxyphenyl)-1-(6-{[(3S)-3-[(4-methylpiperazin-1-yl)methyl]-3,4-dihydroisoquinolin-2(1H)-yl]carbonyl}-1,3-benzodioxol-5-yl)-N-(2-phenylethyl)-1H-indole-3-carboxamide] | 7.8 | 167
CN1CCN(C[C@@H]2Cc3ccccc3CN2C(=O)c2ccc(Cl)cc2-n2cc(C(=O)N(c3ccc(O)cc3)c3ccc(F)cc3)c3ccccc32)CC1 [Example 75, 1-(5-Chloro-2-{[(3S)-3-[(4-methylpiperazin-1-yl)methyl]-3,4-dihydroisoquinolin-2(1H)-yl]carbonyl}phenyl)-N-(4-fluorophenyl)-N-(4-hydroxyphenyl)-1H-indole-3-carboxamide] | 7.1 | 184
Cc1ccc(N(C(=O)c2cn(-c3cc4c(cc3C(=O)N3Cc5ccccc5C[C@H]3CN3CCN(C)CC3)OCO4)c3ccccc23)c2ccc(O)cc2)cc1 [Example 32, N-(4-Hydroxyphenyl)-N-(4-methylphenyl)-1-(6-{[(3S)-3-[(4-methylpiperazin-1-yl)methyl]-3,4-dihydroisoquinolin-2(1H)-yl]carbonyl}-1,3-benzodioxol-5-yl)-1H-indole-3-carboxamide] | 3.5 | 63.7
O=C(c1cn(-c2cc(Cl)ccc2C(=O)N2Cc3ccccc3C[C@H]2CN2CCCCC2)c2ccccc12)N(c1ccccc1)c1ccc(O)cc1 [Example 171, 1-{5-Chloro-2-[(3S)-3-(piperidin-1-ylmethyl)-1,2,3,4-tetrahydroisoquinoline-2-carbonyl}phenyl]-N-(4-hydroxyphenyl)-N-phenyl-1H-indole-3-carboxamide] | 71.8 | 1050
CCC1COc2cc(-n3cc(C(=O)N(c4ccccc4)c4ccc(O)cc4)c4ccccc43)c(C(=O)N3Cc4ccccc4C[C@H]3CN3CCN(C)CC3)cc2O1 (stereo partly drawn) [Example 185, 1-{2-Ethyl-7-[(3S)-3-[(4-methylpiperazin-1-yl)methyl]-1,2,3,4-tetrahydroisoquinoline-2-carbonyl]-2,3-dihydro-1,4-benzodioxin-6-yl}-N-(4-hydroxyphenyl)-N-phenyl-1H-indole-3-carboxamide] | 17.3 | 422
COc1ccc(C(=O)N2Cc3ccccc3C[C@H]2CN)c(-n2cc(C(=O)N(c3ccccc3)c3ccc(O)cc3)c3ccccc32)c1 [Example 146, 1-{2-[(3S)-3-(Aminomethyl)-1,2,3,4-tetrahydroisoquinoline-2-carbonyl]-5-methoxyphenyl}-N-(4-hydroxyphenyl)-N-phenyl-1H-indole-3-carboxamide] | 17.2 | 346
Cc1ccc(N(C(=O)c2cn(-c3cc4c(cc3C(=O)N3Cc5ccccc5C[C@H]3CN3CCN(C)CC3)OCO4)c3ccccc23)c2ccc3[nH]ncc3c2)cc1 [Example 68, N-(1H-Indazol-5-yl)-N-(4-methylphenyl)-1-(6-{[(3S)-3-[(4-methylpiperazin-1-yl)methyl]-3,4-dihydroisoquinolin-2(1H)-yl]carbonyl}-1,3-benzodioxol-5-yl)-1H-indole-3-carboxamide hydrochloride] | 79.7 | 856
CNc1ccc(-n2nc(C(=O)N(c3ccccc3)c3ccccc3)c3ccccc32)c(C(=O)N2Cc3ccccc3C[C@H]2CN)c1 [Example 140, 1-{2-[(3S)-3-(Aminomethyl)-1,2,3,4-tetrahydroisoquinoline-2-carbonyl]-4-(methylamino)phenyl}-N,N-diphenyl-1H-indazole-3-carboxamide] | 25 | 1840
COc1cc(-n2cc(C(=O)N(c3ccccc3)c3ccc(O)cc3)c3ccccc32)c(C(=O)N2Cc3ccccc3C[C@H]2CN)cc1O [Example 145, 1-{2-[(3S)-3-(Aminomethyl)-1,2,3,4-tetrahydroisoquinoline-2-carbonyl]-4-hydroxy-5-methoxyphenyl}-N-(4-hydroxyphenyl)-N-phenyl-1H-indole-3-carboxamide] | 12.2 | 1180
COc1ccc(C(=O)N2Cc3ccccc3C[C@H]2CN(C)C)c(-n2cc(C(=O)N(c3ccccc3)c3ccc(O)cc3)c3ccccc32)c1 [Example 175, 1-{2-[(3S)-3-[(Dimethylamino)methyl]-1,2,3,4-tetrahydroisoquinoline-2-carbonyl]-5-methoxyphenyl}-N-(4-hydroxyphenyl)-N-phenyl-1H-indole-3-carboxamide] | 25.1 | 460
Cc1cc(C(=O)N(c2ccc(O)cc2)c2ccc3c(c2)CN(C)C3)cn1-c1cc2c(cc1C(=O)N1Cc3ccccc3C[C@H]1C)OCO2 [Example 114, N-(4-Hydroxyphenyl)-5-methyl-N-(2-methyl-2,3-dihydro-1H-isoindol-5-yl)-1-(6-{[(3R)-3-methyl-3,4-dihydroisoquinolin-2(1H)-yl]carbonyl}-1,3-benzodioxol-5-yl)-1H-pyrrole-3-carboxamide hydrochloride] | 23.7 | 726
O=C(c1cn(-c2ccccc2C(=O)N2Cc3ccccc3C[C@H]2CO)c2ccccc12)N(c1ccccc1)c1ccc(O)cc1 [Example 172, 1-{2-[(3S)-3-(Hydroxymethyl)-1,2,3,4-tetrahydroisoquinoline-2-carbonyl]phenyl}-N-(4-hydroxyphenyl)-N-phenyl-1H-indole-3-carboxamide] | 4.2 | 1200
